# Experimental data taken from PMC12250302, “Synthesis, Antimicrobial Activities, and Model of Action of Novel Tetralone Derivatives Containing Aminoguanidinium Moiety” (International Journal of Molecular Sciences, 2025).
# Like-named read-outs stand apart in the source and are kept apart here.
# Assays:
# E. faecium ATCC 35667 = assay: MIC and MBC testing, broth microdilution; assay type: cell-based, Enterococcus faecium; settings: Enterococcus faecium
# Summary of the method: (§1)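 Two-fold serial dilutions of compounds (DMSO stocks) in MH broth, inoculated with log-phase bacteria at 1 × 10^6 CFU/mL and incubated 18 h at 37 °C. MIC is the lowest concentration with no visible growth; triplicates. Levofloxacin positive, 0.1% DMSO negative control.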
# S. aureus ATCC 29213 = assay: MIC and MBC testing, broth microdilution; assay type: cell-based, Staphylococcus aureus; settings: Staphylococcus aureus
# Summary of the method: as §1
# [1] = tested on: K. pneumoniae ATCC 700603; assay: MIC and MBC testing, broth microdilution; assay type: cell-based, Klebsiella pneumoniae; settings: Klebsiella pneumoniae
# Summary of the method: as §1
# A. baumannii ATCC 19606 = assay: MIC and MBC testing, broth microdilution; assay type: cell-based, Acinetobacter baumannii; settings: Acinetobacter baumannii
# Summary of the method: as §1
# P. aeruginosa ATCC 27853 = assay: MIC and MBC testing, broth microdilution; assay type: cell-based, Pseudomonas aeruginosa; settings: Pseudomonas aeruginosa
# Summary of the method: as §1
# E. coli ATCC 25922 = assay: MIC and MBC testing, broth microdilution; assay type: cell-based, Escherichia coli; settings: Escherichia coli
# Summary of the method: as §1
# MRSA-1 = assay: MIC and MBC testing, broth microdilution; assay type: cell-based, Staphylococcus aureus; settings: Staphylococcus aureus; for MIC: 18 h
# Summary of the method: (§2)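 Strains grown to logarithmic phase were diluted to 1 × 10^6 CFU/mL, combined with compound two-fold dilution series in MH broth, and incubated at 37 °C for 18 h. MIC and MBC were then recorded, with triplicate wells per concentration.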
# MRSA-2 [2] = assay: MIC and MBC testing, broth microdilution; assay type: cell-based, Staphylococcus aureus; settings: Staphylococcus aureus; for MIC: 18 h
# Summary of the method: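 Compounds in DMSO were serially two-fold diluted in MH broth and mixed with log-phase bacteria diluted to 1 × 10^6 CFU/mL in MH broth, then incubated 18 h at 37 °C. MBC values were also determined. Each concentration was tested in triplicate.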
# [3] = tested on: clinical S. aureus isolate LMY45; assay: MIC and MBC testing, broth microdilution; assay type: cell-based, Staphylococcus aureus; settings: Staphylococcus aureus; for MIC: 18 h
# Summary of the method: as §2
# [4] = tested on: clinical S. aureus isolate LMY46; assay: MIC and MBC testing, broth microdilution; assay type: cell-based, Staphylococcus aureus; settings: Staphylococcus aureus; for MIC: 18 h
# Summary of the method: as §2
# [5] = tested on: clinical S. aureus isolate LMY47; assay: MIC and MBC testing, broth microdilution; assay type: cell-based, Staphylococcus aureus; settings: Staphylococcus aureus; for MIC: 18 h
# Summary of the method: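 Broth microdilution in MH broth: 2-fold compound dilutions from DMSO stocks, log-phase clinical S. aureus isolates or MRSA-1 at 1 × 10^6 CFU/mL, 18 h at 37 °C, each concentration in triplicate. MIC recorded; MBC also determined.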
# [6] = tested on: clinical S. aureus isolate LMY48; assay: MIC and MBC testing, broth microdilution; assay type: cell-based, Staphylococcus aureus; settings: Staphylococcus aureus; for MIC: 18 h
# Summary of the method: as §2
# MRSA = assay: MIC testing, summary over MRSA strains; assay type: cell-based; settings: Staphylococcus aureus; against MRSA
# Description: (§3) The minimum inhibitory concentration (MIC) of all synthesized compounds was tested by the broth microdilution method. In brief, compounds dissolved in DMSO were diluted twice continuously in a 96-well plate with MH broth. The ESKAPE pathogens (E. coli ATCC 25922, S. aureus ATCC 29213, K. pneumoniae ATCC 700603, A. baumannii ATCC 19606, P. aeruginosa ATCC 27853, and E. faecium ATCC 35667), clinical S. aureus isolates (LMY45, LMY46, LMY47, and LMY48) and methicillin-resistant Staphylococcus aureus (MRSA-1 and MRSA-2) were cultured in MH broth to logarithmic growth phase and then diluted to 1 × 10^6 CFU/mL in MH broth. Subsequently, the diluted bacterial solution was mixed with the diluted compound solution in a 96-well plate and incubated at 37 °C for a duration of 18 h. The MIC of the compounds was recorded as the lowest concentration at which no visible growth was observed. […] Each concentration was replicated thrice.
# [7] = tested on: S. aureus, including MRSA; assay: MIC testing, summary over S. aureus strains; assay type: cell-based; settings: Staphylococcus aureus
# Description: as §3
# MRSA-2 biofilm [8] = assay: Biofilm elimination assay (crystal violet); assay type: cell-based, Staphylococcus aureus; settings: at the test concentration
# Description: The ability of 2D to eliminate biofilm was evaluated. MRSA-2 (1 × 10^6 CFU/mL) was incubated in 96-well plates for 24 h until biofilm formation. The planktonic bacteria were discarded and washed thrice with PBS. […] According to the above method, the OD575 nm value was detected after the following steps: PBS washing, methanol fixation, crystal violet staining, and ethanol incubation.
# MRSA-2 biofilm [9] = assay: Biofilm formation inhibition assay (crystal violet); assay type: cell-based, Staphylococcus aureus; settings: Staphylococcus aureus, MRSA, 24 h, read-out: inhibition rate of biofilm formation
# Description: The effect of 2D on the biofilm formation of MRSA was evaluated. MRSA-2 was cultured in MH broth for a period of 3–5 h, after which it was diluted to a density of 1 × 10^6 CFU/mL with MH broth. […] After the removal of the suspended bacteria, the well plates were washed thrice with PBS. Then, 150 μL of methanol was added and fixed for 30 min. Subsequent to air-drying, 150 μL of a 0.1% crystal violet aqueous solution was added. Following a 15 min staining period, the excess crystal violet was removed by rinsing with flowing water. Finally, 150 μL of anhydrous ethanol was added and the mixture was incubated for 20 min. The optical density at 575 nm was detected.
# MRSA-2 [10] = assay: MRSA-induced mouse skin abscess model; assay type: in vivo
# Excerpt: The MRSA-induced mouse skin abscess model was used to assess the in vivo antibacterial effects of 2D. Female KM mice, aged 4–6 weeks and weighing 20 ± 2 g, were purchased from the Laboratory Animal Center, Lanzhou Institute of Veterinary Medicine, Chinese Academy of Agricultural Sciences. The animal experiments were approved by the Ethics Committee of Research Involving Animals of the Lanzhou Institute of Husbandry and Pharmaceutical Science of CAAS (Approval number: 2025-03) and performed in accordance with the guidelines of the Ethics Committee for Animal Experiments. Prior to the formal experiment, all mice were acclimated for 5 days. The mice were kept in a pathogen-free environment with a 12 h light/12 h dark cycle, 50% ± 10% humidity, and a temperature of 24 °C ± 2 °C. […] The depilation method employed was as follows: depilatory paste was applied to the designated area for 10 min, after which it was thoroughly washed with 0.9% saline. The mice were semi-anesthetized by intraperitoneal injection with sodium Ulatan (TCI, 20%, 100 μL). […] After a 24 h interval, the administration was repeated, and 24 h after the last administration, the volume of abscess was measured and calculated. Then, the skin of the infected site and main organs were collected for tissue bacterial load and pathological detection.
# MRSA-2 [11] = assay: Growth curve (OD600); assay type: cell-based, Staphylococcus aureus; settings: 2D 0.5, 1, 2, 4, 8 µg/mL, vancomycin 0.5 and 1 μg/mL
# Description: (§4) The growth inhibition and time-dependent killing abilities of 2D were evaluated against S. aureus (ATCC 29213) and MRSA-2. After culturing the strains in MH broth until the logarithmic growth phase, they were diluted with MH broth to 1 × 10^6 CFU/mL. […] OD600 values were measured at predetermined time intervals (0, 1, 2, 4, 6, 8, 10, 12, and 24 h).
# S. aureus (ATCC 29213) = assay: Growth curve (OD600); assay type: cell-based, Staphylococcus aureus; settings: 2D 0.5, 1, 2, 4, 8 µg/mL, vancomycin 0.5 and 1 μg/mL
# Description: as §4
# MRSA-2 [12] = assay: Fluorescence microscopy assay (DAPI/PI); assay type: cell-based, Staphylococcus aureus; settings: vancomycin 4 µg/mL; 2D 4 and 8 μg/mL; 2 h
# Description: MRSA-2 was cultivated to the logarithmic growth phase, then washed with PBS and resuspended in PBS until the concentration of bacterial suspension reached 1 × 10^8 CFU/mL. […] Thereafter, the samples were incubated with DAPI (10 μM) and PI (10 μM) in the dark for 15 min. The bacterial cells were then subjected to observation under a fluorescence microscope. DMSO served as the negative controls.
compound,measurement,setting,value
"[H]/N=C(\N)NN=C1CCCc2cc(OCC=C(C)C)ccc21 [Compound 2I, (E)-2-(6-((3-methylbut-2-en-1-yl)oxy)-3,4-dihydronaphthalen-1(2H)-ylidene)hydrazine-1-carboximidamide]",MIC,"E. faecium ATCC 35667; ATCC35667, E. faecium ATCC 35667, 18 h, read-out: MIC",8 µg/mL
same,MBC,"E. faecium ATCC 35667; ATCC35667, E. faecium ATCC 35667, read-out: MBC",32 µg/mL
same,MIC,"S. aureus ATCC 29213; ATCC29213, S. aureus ATCC 29213, 18 h, read-out: MIC",4 µg/mL
same,MBC,"S. aureus ATCC 29213; ATCC29213, S. aureus ATCC 29213, read-out: MBC",32 µg/mL
same,MIC,"[1]; ATCC700603, 18 h, read-out: MIC",32 µg/mL
same,MBC,"[1]; ATCC700603, read-out: MBC",> 32 µg/mL
same,MIC,"A. baumannii ATCC 19606; ATCC19606, 18 h, read-out: MIC",16 µg/mL
same,MBC,"A. baumannii ATCC 19606; ATCC19606, read-out: MBC",32 µg/mL
same,MIC,"P. aeruginosa ATCC 27853; ATCC27853, 18 h, read-out: MIC",32 µg/mL
same,MBC,"P. aeruginosa ATCC 27853; ATCC27853, read-out: MBC",32 µg/mL
same,MIC,"E. coli ATCC 25922; ATCC25922, 18 h, read-out: MIC",16 µg/mL
same,MBC,"E. coli ATCC 25922; ATCC25922, read-out: MBC",32 µg/mL
same,MIC,"MRSA-1; MRSA-1, read-out: MIC",2 µg/mL
same,MBC,"MRSA-1; MRSA-1, read-out: MBC",16 µg/mL
same,MIC,"MRSA-2 [2]; MRSA-2, read-out: MIC",1 µg/mL
same,MBC,"MRSA-2 [2]; MRSA-2, read-out: MBC",2 µg/mL
same,MIC,"[3]; LMY45, read-out: MIC",2 µg/mL
same,MBC,"[3]; LMY45, read-out: MBC",4 µg/mL
same,MIC,"[4]; LMY46, read-out: MIC",2 µg/mL
same,MBC,"[4]; LMY46, read-out: MBC",2 µg/mL
same,MIC,"[5]; LMY47, read-out: MIC",2 µg/mL
same,MBC,"[5]; LMY47, read-out: MBC",8 µg/mL
same,MIC,"[6]; LMY48, read-out: MIC",1 µg/mL
same,MBC,"[6]; LMY48, read-out: MBC",2 µg/mL
same,MIC,MRSA,1 to 2 µg/mL
same,MIC,[7],0.5 to 4 µg/mL
"CN[C@H](CC(C)C)C(=O)N[C@H]1C(=O)N[C@@H](CC(N)=O)C(=O)N[C@H]2C(=O)N[C@H]3C(=O)N[C@H](C(=O)N[C@H](C(=O)O)c4cc(O)cc(O)c4-c4cc3ccc4O)[C@H](O)c3ccc(c(Cl)c3)Oc3cc2cc(c3O[C@@H]2O[C@H](CO)[C@@H](O)[C@H](O)[C@H]2O[C@H]2C[C@](C)(N)[C@H](O)[C@H](C)O2)Oc2ccc(cc2Cl)[C@H]1O [Vancomycin, reference compound]",MBC,E. faecium ATCC 35667; ATCC35667,16 µg/mL
same,MIC,"E. faecium ATCC 35667; ATCC35667, 18 h",2 µg/mL
same,MBC,S. aureus ATCC 29213; ATCC29213,4 µg/mL
same,MIC,"S. aureus ATCC 29213; ATCC29213, 18 h",1 µg/mL
same,MBC,MRSA-1; MRSA,4 µg/mL
same,MIC,MRSA-1; MRSA,1 µg/mL
same,MBC,MRSA-2 [2]; MRSA,2 µg/mL
same,MIC,MRSA-2 [2]; MRSA,1 µg/mL
same,MBC,[3],2 µg/mL
same,MIC,[3],0.5 µg/mL
same,MBC,[4],8 µg/mL
same,MIC,[4],1 µg/mL
same,MBC,[5],2 µg/mL
same,MIC,[5],1 µg/mL
same,MBC,[6],2 µg/mL
same,MIC,[6],1 µg/mL
same,biofilm elimination,MRSA-2 biofilm [8],unable to completely eliminate the biofilm
same,inhibition at 0.25 µg/mL,MRSA-2 biofilm [9],~18.5%
same,inhibition at 0.5 µg/mL,MRSA-2 biofilm [9],~37.8%
same,purulent lesions at the infection site (skin histopathology),MRSA-2 [10]; 5 mg/kg,significantly smaller
same,volume of skin abscess,"MRSA-2 [10]; 5 mg/kg, injected 2 h and 24 h postinfection, compared to model and solvent group",reduced volume
same,bacterial load of the skin at the infected site,"MRSA-2 [10]; 2D 5 and 10 mg/kg, vancomycin 5 mg/kg, compared with model and solvent group",significantly reduced
same,histopathology of the major organs,"MRSA-2 [10]; infected mice after treatment, H&E",no discernible lesions
same,growth inhibition (growth curve),MRSA-2 [11],failed to completely inhibit the growth
same,growth inhibition (growth curve),S. aureus (ATCC 29213),failed to completely inhibit the growth
same,PI red fluorescence (damaged membranes),MRSA-2 [12],a very small amount of red fluorescence
